Key:
OVCAR-3 = experiment: NCI anticancer screening, Ovarian Cancer OVCAR-3; assay type: cell-based; conditions: Homo sapiens; OVCAR-3, 10 μM; read-out: % Growth Inhibition (GI %)
Description: (§1) The compound has been processed according to standard method NCI-60 Human Tumor Cell Lines Screen for organic compound at development therapeutic program (DTP). Requests for access to this national resource can be submitted online at: […]

CCRF-CEM = experiment: NCI anticancer screening, Leukemia CCRF-CEM; assay type: cell-based; conditions: Homo sapiens, read-out: % Growth Inhibition (GI %)
Description: as §1

HCT-15 = experiment: NCI anticancer screening, Colon Cancer HCT-15; assay type: cell-based; conditions: Homo sapiens; HCT-15, 10 μM; read-out: % Growth Inhibition (GI %)
Description: as §1

SR = experiment: NCI anticancer screening, Leukemia SR; assay type: cell-based; conditions: Homo sapiens, read-out: % Growth Inhibition (GI %)
Description: as §1

MDA-MB-468 = experiment: NCI anticancer screening, Breast Cancer MDA-MB-468; assay type: cell-based; conditions: Homo sapiens, read-out: % Growth Inhibition (GI %)
Description: as §1

SN12C = experiment: NCI anticancer screening, Renal Cancer SN12C; assay type: cell-based; conditions: Homo sapiens, read-out: % Growth Inhibition (GI %)
Description: as §1

IGROV1 = experiment: NCI anticancer screening, Ovarian Cancer IGROV1; assay type: cell-based; conditions: Homo sapiens, IGROV-1; IGROV1, 10 μM; read-out: % Growth Inhibition (GI %)
Description: as §1

CAKI-1 = experiment: NCI anticancer screening, Renal Cancer CAKI-1; assay type: cell-based; conditions: Homo sapiens; CAKI-1, 10 μM; read-out: % Growth Inhibition (GI %)
Description: as §1

HCC-2998 = experiment: NCI anticancer screening, Colon Cancer HCC-2998; assay type: cell-based; conditions: Homo sapiens; HCC-2998, 10 μM; read-out: % Growth Inhibition (GI %)
Description: as §1

HL-60(TB) = experiment: NCI anticancer screening, Leukemia HL-60(TB); assay type: cell-based; conditions: Homo sapiens, read-out: % Growth Inhibition (GI %)
Description: as §1

NCI/ADR-RES = experiment: NCI anticancer screening, Ovarian Cancer NCI/ADR-RES; assay type: cell-based; conditions: Homo sapiens, read-out: % Growth Inhibition (GI %)
Description: as §1

NCI-H23 = experiment: NCI anticancer screening, Non-Small Cell Lung Cancer NCI-H23; assay type: cell-based; conditions: Homo sapiens; NCI-H23, 10 μM; read-out: % Growth Inhibition (GI %)
Description: as §1

OVCAR-5 = experiment: NCI anticancer screening, Ovarian Cancer OVCAR-5; assay type: cell-based; conditions: Homo sapiens; OVCAR-5, 10 μM; read-out: % Growth Inhibition (GI %)
Description: as §1

ACHN = experiment: NCI anticancer screening, Renal Cancer ACHN; assay type: cell-based; conditions: Homo sapiens, read-out: % Growth Inhibition (GI %)
Description: as §1

U251 = experiment: NCI anticancer screening, CNS Cancer U251; assay type: cell-based; conditions: Homo sapiens, U-251; U251, 10 μM; read-out: % Growth Inhibition (GI %)
Description: as §1

NCI-H226 = experiment: NCI anticancer screening, Non-Small Cell Lung Cancer NCI-H226; assay type: cell-based; conditions: Homo sapiens; NCI-H226, 10 μM; read-out: % Growth Inhibition (GI %)
Description: as §1

SNB-75 = experiment: NCI anticancer screening, CNS Cancer SNB-75; assay type: cell-based; conditions: Homo sapiens; SNB-75, 10 μM; read-out: % Growth Inhibition (GI %)
Description: as §1

TK-10 = experiment: NCI anticancer screening, Renal Cancer TK-10; assay type: cell-based; conditions: Homo sapiens; TK-10, 10 μM; read-out: % Growth Inhibition (GI %)
Description: as §1

OVCAR-8 = experiment: NCI anticancer screening, Ovarian Cancer OVCAR-8; assay type: cell-based; conditions: Homo sapiens; OVCAR-8, 10 μM; read-out: % Growth Inhibition (GI %)
Description: as §1

EKVX = experiment: NCI anticancer screening, Non-Small Cell Lung Cancer EKVX; assay type: cell-based; conditions: Homo sapiens, read-out: % Growth Inhibition (GI %)
Description: as §1

SK-MEL-2 = experiment: NCI anticancer screening, Melanoma SK-MEL-2; assay type: cell-based; conditions: Homo sapiens; SK-MEL-2, 10 μM; read-out: % Growth Inhibition (GI %)
Description: as §1

HOP-62 = experiment: NCI anticancer screening, Non-Small Cell Lung Cancer HOP-62; assay type: cell-based; conditions: Homo sapiens; HOP-62, 10 μM; read-out: % Growth Inhibition (GI %)
Description: as §1

SF-539 = experiment: NCI anticancer screening, CNS Cancer SF-539; assay type: cell-based; conditions: Homo sapiens; SF-539, 10 μM; read-out: % Growth Inhibition (GI %)
Description: as §1

SF-295 = experiment: NCI anticancer screening, CNS Cancer SF-295; assay type: cell-based; conditions: Homo sapiens; SF-295, 10 μM; read-out: % Growth Inhibition (GI %)
Description: as §1

MDA-MB-435 = experiment: NCI anticancer screening, Melanoma MDA-MB-435; assay type: cell-based; conditions: Homo sapiens; MDA-MB-435, 10 μM; read-out: % Growth Inhibition (GI %)
Description: as §1

HCT-116 = experiment: NCI anticancer screening, Colon Cancer HCT-116; assay type: cell-based; conditions: Homo sapiens; HCT-116, 10 μM; read-out: % Growth Inhibition (GI %)
Description: as §1

[1] = molecular target: T1, Mdm2 (residues 1–118 T47W) (Homo sapiens, UniProt Q00987, T47W); experiment: MDM2 binding by microscale thermophoresis (MST)
T1 construct: Mdm2 (residues 1–118 T47W; 500 nM)
T1 sequence (Q00987 1-118 T47W): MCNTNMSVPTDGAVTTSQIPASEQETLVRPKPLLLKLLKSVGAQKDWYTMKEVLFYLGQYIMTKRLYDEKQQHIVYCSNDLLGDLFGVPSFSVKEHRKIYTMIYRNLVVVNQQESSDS
Method: MST is a complementary biophysical assay to assess the binding of a small molecule to its receptor. […] Experiments were performed in 50 mM phosphate buffer at pH 7.4 containing 150 mM NaCl, 5 mM DTT, and 5% DMSO. […] Kd values and uncertainties were calculated using the MO Affinity Analysis software.

Row | Compound | inhibition at 10 µM (OVCAR-3) | inhibition at 10 µM (CCRF-CEM) | inhibition at 10 µM (HCT-15) | inhibition at 10 µM (SR) | inhibition at 10 µM (MDA-MB-468) | inhibition at 10 µM (SN12C) | inhibition at 10 µM (IGROV1) | inhibition at 10 µM (CAKI-1) | inhibition at 10 µM (HCC-2998) | inhibition at 10 µM (HL-60(TB)) | inhibition at 10 µM (NCI/ADR-RES) | inhibition at 10 µM (NCI-H23) | inhibition at 10 µM (OVCAR-5) | inhibition at 10 µM (ACHN) | inhibition at 10 µM (U251) | inhibition at 10 µM (NCI-H226) | inhibition at 10 µM (SNB-75) | inhibition at 10 µM (TK-10) | inhibition at 10 µM (OVCAR-8) | inhibition at 10 µM (EKVX) | also measured
1 | O=C(c1nc2ccccc2[nH]1)[C@H]1[C@H](c2ccc(C(F)(F)F)cc2)C2CSCN2[C@]12C(=O)Nc1ccccc12 (stereo partly drawn) [Compound 6c, (3S,6′R)-6'-(1H-Benzo [d]imidazole-2-carbonyl)-7'-(4-(trifluoromethyl)phenyl)-3′,6′,7′,7a′-tetrahydro-1′H-spiro [indoline-3.5′-pyrrolo [1,2-c]thiazol]-2-one] | 87.7% | 95% | 88.9% | 85.6% | 91.6% | 90.7% | 67.8% | 78.6% | 99.6% | 108% | 86% | 82.3% | 96.1% | 89.6% | 93.2% | 79% | 72.9% | 120% | 98.8% | 87% | inhibition at 10 µM (SK-MEL-2): 108%; inhibition at 10 µM (HOP-62): 89.5%; inhibition at 10 µM (SF-539): 91.6%; inhibition at 10 µM (SF-295): 95.3%; inhibition at 10 µM (MDA-MB-435): 88.3%; inhibition at 10 µM (HCT-116): 60%
2 | O=C(c1nc2ccccc2[nH]1)[C@H]1[C@H](c2cccc(O)c2)C2CSCN2[C@]12C(=O)Nc1ccccc12 (stereo partly drawn) [Compound 6h, (3S,6′R)-6'-(1H-Benzo [d]imidazole-2-carbonyl)-7'-(3-hydroxyphenyl)-3′,6′,7′,7a′-tetrahydro-1′H-spiro [indoline-3.5′-pyrrolo [1,2-c]thiazol]-2-one] | 97.2% | 108% | 103% | 79.1% | 104% | 94.8% | 87.9% | 84.1% | 101% | 104% | 97.1% | 99.3% | 92.9% | 92.8% | 98.9% | 99.1% | 74.5% | 113% | 97% | 96.6% | Kd [1]: 6.68 µM; inhibition at 10 µM (SK-MEL-2): 102%; inhibition at 10 µM (HOP-62): 96.4%; inhibition at 10 µM (SF-539): 90%; inhibition at 10 µM (SF-295): 105%; inhibition at 10 µM (MDA-MB-435): 93.5%; inhibition at 10 µM (HCT-116): 89%
3 | O=C(c1nc2ccccc2[nH]1)[C@H]1[C@H](c2ccccc2O)C2CSCN2[C@]12C(=O)Nc1ccccc12 (stereo partly drawn) [Compound 6j, (3S,6′R)-6'-(1H-Benzo [d]imidazole-2-carbonyl)-7'-(2-hydroxyphenyl)-3′,6′,7′,7a′-tetrahydro-1′H-spiro [indoline-3.5′-pyrrolo [1,2-c]thiazol]-2-one] | 96.3% | 101% | 101% | 94% | 102% | 94.3% | 92.1% | 84% | 103% | 103% | 95.9% | 96.5% | 102% | 92.2% | 95.8% | 91.3% | 73.1% | 115% | 97.7% | 91.6% | inhibition at 10 µM (SK-MEL-2): 104%; inhibition at 10 µM (HOP-62): 85.2%; inhibition at 10 µM (SF-539): 98.5%; inhibition at 10 µM (SF-295): 96.3%; inhibition at 10 µM (MDA-MB-435): 92.7%; inhibition at 10 µM (HCT-116): 96.3%
4 | CN(C)c1ccc([C@@H]2C3CSCN3[C@]3(C(=O)Nc4ccccc43)[C@H]2C(=O)c2nc3ccccc3[nH]2)cc1 (stereo partly drawn) [Compound 6k, (3S,6′R)-6'-(1H-Benzo [d]imidazole-2-carbonyl)-7'-(4-(dimethylamino)phenyl)-3′,6′,7′,7a′-tetrahydro-1′H-spiro [indoline-3.5′-pyrrolo [1,2-c]thiazol]-2-one] | 103% | 99.9% | 99.1% | 84.3% | 99.8% | 94% | 89.8% | 85.8% | 102% | 99.5% | 96% | 94.3% | 95.6% | 99% | 103% | 91.4% | 88.3% | 111% | 105% | 91.4% | inhibition at 10 µM (SK-MEL-2): 106%; inhibition at 10 µM (HOP-62): 95.7%; inhibition at 10 µM (SF-539): 99.6%; inhibition at 10 µM (SF-295): 103%; inhibition at 10 µM (MDA-MB-435): 96.8%; inhibition at 10 µM (HCT-116): 102%
5 | O=C(c1nc2ccccc2[nH]1)[C@H]1[C@H](c2cccc(F)c2)C2CSCN2[C@]12C(=O)Nc1ccccc12 (stereo partly drawn) [Compound 6m, (3S,6′R)-6'-(1H-Benzo [d]imidazole-2-carbonyl)-7'-(3-fluorophenyl)-3′,6′,7′,7a′-tetrahydro-1′H-spiro [indoline-3.5′-pyrrolo [1,2-c]thiazol]-2-one] | 103% | 112% | 95% | 82.8% | 99.3% | 96.1% | 84.6% | 74.7% | 91.8% | 98.4% | 95.9% | 90.7% | 90.5% | 90.2% | 106% | 92.6% | 77.7% | 116% | 94.9% | 88.2% | inhibition at 10 µM (SK-MEL-2): 95.7%; inhibition at 10 µM (HOP-62): 97.9%; inhibition at 10 µM (SF-539): 86.7%; inhibition at 10 µM (SF-295): 96.1%; inhibition at 10 µM (MDA-MB-435): 96.5%; inhibition at 10 µM (HCT-116): 84.4%
6 | O=C(c1nc2ccccc2[nH]1)[C@H]1[C@H](c2ccco2)C2CSCN2[C@]12C(=O)Nc1ccccc12 (stereo partly drawn) [Compound 6n, (3S,6′R)-6'-(1H-Benzo [d]imidazole-2-carbonyl)-7'-(furan-2-yl)-3′,6′,7′,7a′-tetrahydro-1′H-spiro [indoline-3.5′-pyrrolo [1,2-c]thiazol]-2-one] | 110% | 110% | 105% | 86.8% | 102% | 92.5% | 92.4% | 88.5% | 104% | 98.4% | 101% | 92.9% | 97.2% | 93.7% | 109% | 92.2% | 96% | 133% | 101% | 103% | inhibition at 10 µM (SK-MEL-2): 124%; inhibition at 10 µM (HOP-62): 99.8%; inhibition at 10 µM (SF-539): 96.4%; inhibition at 10 µM (SF-295): 109%; inhibition at 10 µM (MDA-MB-435): 105%; inhibition at 10 µM (HCT-116): 98.6%
